# Read-outs that look alike come from different tables or passages of the source.
# Assays:
# [1] = Plasma pharmacokinetic study in rats after oral and intravenous administration of SZ–A or purified DNJ; format: in vivo, rat; conditions: for AUC(0-inf) / AUC(0-t) / Tmax / half-life / clearance / MRT last / MRT inf / Vd / Cmax / CLz: rat plasma, n = 5; for clearance: read-out: CLz (converted); for MRT last: read-out: MRT0–t; for MRT inf: read-out: MRT0–∞; for bioavailability: plasma, read-out: F (oral absolute bioavailability)
# Experimental: The oral dosing solutions used for all animal studies were prepared by dissolving in water. Thirty rats weighed 250–270 g after acclimation were randomly divided into six groups of five animals each. For oral administration, rats were treated with SZ–A (40, 200, 1000 mg/kg) or purified DNJ (15 mg/kg) dissolve in water. Blood samples (about 0.25 mL) were collected via the postorbital venous plexus veins under ether anesthesia into heparinized polythene tubes before dosing and at 0.08, 0.17, 0.33, 0.50, 1, 2, 3, 4, 6, 8, 12, 24 and 36 h after drug administration. For intravenous dosing, rats were given SZ–A (4 mg/kg) or DNJ (1.5 mg/kg) dissolved in normal saline solution through the tail vein. Then blood samples were collected at 0.03, 0.08, 0.17, 0.33, 0.67, 1, 2, 4, 6, 8, 12, 24, and 36 h under similar conditions. Considering the physical limit of blood in rats, during the process of the pharmacokinetic experiment, each rat was received 0.25 mL of sterile isotonic saline at each time point after blood sampling for compensation of body fluid loss, and the blood loss was also corrected at a definite degree. Plasma was separated by centrifuging the blood samples at 1660× g for 5 min and stored at −20 °C until LC-MS/MS analysis. Data fitting and pharmacokinetic parameter estimates were carried out using non–compartmental analysis via WinNonlin Software (version 6.1, Pharsight Corporation, Mountain View, CA, USA). F was calculated according to the formula: F (%) = (AUC oral/AUC i.v.) × (dose i.v./dose oral) × 100.
# The plasma, feces, urine, and bile samples (100 μL) were added to 1 μL of Tris aqueous solution (2 M), 10 μL of IS working solution (2 μg/mL), and 190 μL methanol–acetonitrile (25:75, v/v). The incubation supernatant samples (300 μL) were mixed with 1 μL Tris aqueous solution (2 M) and 10 μL of IS working solution (2 μg/mL). All mixtures were vortexed for 30 s followed by centrifugation at 18,880× g for 5 min, twice.
# Briefly, the LC-MS/MS instrument consisted of a 1260 HPLC system (Agilent, Santa Clara, CA, USA) and API4000 triple quadrupole mass spectrometer (Applied Biosystems Sciex, Toronto, ON, Canada) with an electrospray ionization (ESI) source and Analyst software (version 1.5.2, Applied Biosystems Sciex, Toronto, ON, Canada) for data acquisition and processing. DNJ, FGM, DAB, and IS were separated in a Xbridge amide™ column (3.5 μm, 4.6 mm × 150 mm; Waters, Milford, MA, USA) with a gradient mobile phase of acetonitrile-water (0.1% ammonium hydroxide) at a flow rate of 0.7 mL/min. An ESI source was used in the positive ion mode. The optimized mass spectrometric condition was as follows: ion spray voltage, 5500 V; collision gas, 6 psi; curtain gas, 20 psi; ion source gas 1 (GS1), 45 psi; ion source gas 2 (GS2), 45 psi; temperature, 450 °C. The multiple reaction monitoring (MRM) transitions of DNJ, FGM, DAB, and IS were m/z 164.0→110.1 (declustering potential (DP) 50 V, collision energy (CE) 22 V, collision cell exit potential (CXP) 10 V), 148.0→112.1 (DP 66 V, CE 21 V, CXP 10 V), 134.0→98.0 (DP 60 V, CE 20 V, CXP 10 V) and 208.0→146.1 (DP 50 V, CE 27 V, CXP 10 V), respectively.
# [2] = Tissue distribution in rats after oral SZ–A; format: in vivo; conditions: Sprague-Dawley, pancreas, rat, SZ–A 40 mg/kg p.o., 0.25, 0.5 and 2 h, n = 3, read-out: tissue to plasma ratio (T/P) in the pancreas
# Experimental: Three groups of rats (three rats in each group) were administered with a single oral dose of SZ–A at 40 mg/kg. Rats each were sacrificed and various tissues, including liver, kidney, pancreas, stomach, duodenum, jejunum, ileum, cecum, colon, and the content in the gastrointestinal tract were collected at 0.25, 0.5, and 2 h time points. One additional rat was sacrificed predose to provide control tissues for analysis. After removing blood or content and weighing, each sample was individually homogenized with normal saline solution (1:3, w/v for tissue; 1:9, w/v for content) using a tissue homogenizer (Polytron PT1600E, Kinematica, Luzern, Switzerland) and stored at −20 °C until LC-MS/MS analysis.
# [3] = In vitro incubation of SZ–A with rat intestinal homogenate; format: in vitro ADME; conditions: SZ–A 10.87 μg/mL, with/without NADPH generation, 37 °C, 120 min
# Experimental: Pooled rat intestinal homogenate from six males was prepared using a tissue homogenizer with ice cold normal saline solution at a proportion of 1:3 (w/v). SZ–A was incubated with rat intestinal homogenate (5 mg protein/mL) with/without a NADPH-generating system (0.011 M β-NADP, 0.1 M glucose 6-phosphate, 10 U/mL glucose-6-phosphate dehydrogenase) in a 37 °C water bath for 120 min. Meanwhile, caecal content was collected and mixed with anaerobic medium (1:30, w/v) to prepare the cultures under nitrogen atmosphere at 37 °C for 120 min. SZ–A and rat caecal microbiota cultures were incubated at a total volume of 200 μL with the boiled samples as the negative control, concomitantly. The incubation was stopped at 2 h by adding two volumes of methanol–acetonitrile (1:3, v/v). Triplicate supernatants were taken by centrifugation at 18,880× g for 5 min and stored at −20 °C until LC-MS/MS analysis. The results were expressed as the percentage of the concentration at 0 min.
# [4] = Sprague-Dawley, iv, SZ–A 4 mg/kg i.v.
# [5] = Sprague-Dawley, iv, purified DNJ 1.5 mg/kg i.v.
# [6] = Sprague-Dawley, po, SZ–A 40 mg/kg p.o.
# [7] = Sprague-Dawley, po, SZ–A 200 mg/kg p.o.
# [8] = Sprague-Dawley, po, SZ–A 1000 mg/kg p.o.
# [9] = Sprague-Dawley, po, purified DNJ 15 mg/kg p.o.
smiles,measurement,setting,value
"OC[C@H]1NC[C@H](O)[C@@H](O)[C@@H]1O [DNJ, 1-deoxynojirimycin]",AUC(0-inf),[1]; [4],1.4 ± 0.175 µg·h/mL
same,AUC(0-t),[1]; [4],1.4 ± 0.175 µg·h/mL
same,Tmax,[1]; [4],1.98 min
same,half-life,[1]; [4],17.4 ± 4.8 min
same,clearance,[1]; [4],1.09 L/h/kg
same,MRT last,[1]; [4],48 ± 30 min
same,MRT inf,[1]; [4],49.2 ± 30.6 min
same,Vd,"[1]; Sprague-Dawley, iv, SZ–A 4 mg/kg i.v., read-out: Vd",0.453 ± 0.13 L/kg
same,AUC(0-inf),[1]; [5],1.14 ± 0.108 µg·h/mL
same,AUC(0-t),[1]; [5],1.13 ± 0.108 µg·h/mL
same,Cmax,[1]; [5],4.52 ± 0.576 µg/mL
same,Tmax,[1]; [5],1.8 min
same,half-life,[1]; [5],15 ± 3 min
same,clearance,[1]; [5],1.33 L/h/kg
same,MRT last,[1]; [5],28.8 ± 4.8 min
same,MRT inf,[1]; [5],30 ± 4.8 min
same,Vd,"[1]; Sprague-Dawley, iv, purified DNJ 1.5 mg/kg i.v., read-out: Vd",0.486 ± 0.0854 L/kg
same,bioavailability,"[1]; Sprague-Dawley, po, rat, SZ–A 40 mg/kg p.o. vs SZ–A 4 mg/kg i.v.",72.4%
same,bioavailability,"[1]; Sprague-Dawley, po, rat, SZ–A 200 mg/kg p.o. vs SZ–A 4 mg/kg i.v.",38.6%
same,bioavailability,"[1]; Sprague-Dawley, po, rat, SZ–A 1000 mg/kg p.o. vs SZ–A 4 mg/kg i.v.",33.3%
same,bioavailability,"[1]; Sprague-Dawley, po, rat, purified DNJ 15 mg/kg p.o. vs DNJ 1.5 mg/kg i.v.",59.4%
same,AUC(0-inf),[1]; [6],10.2 µg·h/mL
same,AUC(0-t),[1]; [6],10.1 µg·h/mL
same,Cmax,[1]; [6],6.37 ± 1.12 µg/mL
same,Tmax,[1]; [6],40.2 ± 17.4 min
same,half-life,[1]; [6],78 ± 15 min
same,MRT last,[1]; [6],103 ± 40.2 min
same,MRT inf,[1]; [6],107 ± 41.4 min
same,AUC(0-inf),[1]; [7],27 µg·h/mL
same,AUC(0-t),[1]; [7],27 µg·h/mL
same,Cmax,[1]; [7],10.5 µg/mL
same,Tmax,[1]; [7],40.2 ± 12 min
same,half-life,[1]; [7],127 ± 28.2 min
same,MRT last,[1]; [7],158 ± 28.8 min
same,MRT inf,[1]; [7],163 ± 29.4 min
same,AUC(0-inf),[1]; [8],117 µg·h/mL
same,AUC(0-t),[1]; [8],116 µg·h/mL
same,Cmax,[1]; [8],25.1 µg/mL
same,Tmax,[1]; [8],25.8 ± 5.4 min
same,half-life,[1]; [8],211 ± 51 min
same,MRT last,[1]; [8],307 ± 88.8 min
same,MRT inf,[1]; [8],315 ± 91.8 min
same,AUC(0-t),[1]; [9],6.73 ± 1.15 µg·h/mL
same,Cmax,[1]; [9],4.86 ± 1.12 µg/mL
same,Tmax,[1]; [9],40.2 ± 17.4 min
same,half-life,[1]; [9],52.8 ± 8.4 min
same,MRT last,[1]; [9],106 ± 15 min
same,MRT inf,[1]; [9],111 ± 12.6 min
same,CLz,[1]; SZ–A 40 mg/kg p.o.,1.5008 ± 0.1955 L/h/kg
same,Vd,[1]; SZ–A 40 mg/kg p.o.,2.8301 ± 0.7411 L/kg
same,CLz,[1]; SZ–A 200 mg/kg p.o.,2.8237 ± 0.4016 L/h/kg
same,Vd,[1]; SZ–A 200 mg/kg p.o.,8.6178 ± 2.3175 L/kg
same,CLz,[1]; SZ–A 1000 mg/kg p.o.,3.2427 ± 0.2981 L/h/kg
same,Vd,[1]; SZ–A 1000 mg/kg p.o.,"16,468.3 ± 4217.0 mL/kg"
same,CLz,[1]; purified DNJ 15 mg/kg p.o.,2.2616 ± 0.3824 L/h/kg
same,time to reach maximum plasma concentration (Cmax),"[1]; rat, after oral administration of SZ–A (40, 200, 1000 mg/kg), upper bound over doses",≤ 0.67 h
same,average AUC of DNJ in the SZ–A group relative to the DNJ group,"[1]; rat, intravenous injection, SZ–A 4 mg/kg vs purified DNJ 1.5 mg/kg",1.2 fold
same,average AUC of DNJ in the SZ–A group relative to the DNJ group,"[1]; rat, oral administration, SZ–A 40 mg/kg vs purified DNJ 15 mg/kg",1.5 fold
same,Kp,[2],0.06 to 0.47
same,amount of alkaloid after incubation in rat intestinal homogenate,[3],not changed significantly

# — paper PMC6151740, “Pharmacokinetics, Tissue Distribution, and Elimination of Three Active Alkaloids in Rats after Oral Administration of the Effective Fraction of Alkaloids from Ramulus Mori, an Innovative Hypoglycemic Agent” (Molecules : A Journal of Synthetic Chemistry and Natural …, 2017)
